The source of these data is patent US20060148858A1, “1, 2-Azole derivatives with hypoglycemic and hypolipidemic activity” (priority 2002, published 2006).

Molecules are shown by their SMILES. Like-named read-outs stand apart in the source and are kept apart here.

One series has as its target T1, PPARγ-RXRα heterodimer (Homo sapiens, UniProt P37231).
T1 construct: expressed in transfected cells; host or cells: CHO-K1
T1 sequence (P37231 1-477 isoform P37231-2): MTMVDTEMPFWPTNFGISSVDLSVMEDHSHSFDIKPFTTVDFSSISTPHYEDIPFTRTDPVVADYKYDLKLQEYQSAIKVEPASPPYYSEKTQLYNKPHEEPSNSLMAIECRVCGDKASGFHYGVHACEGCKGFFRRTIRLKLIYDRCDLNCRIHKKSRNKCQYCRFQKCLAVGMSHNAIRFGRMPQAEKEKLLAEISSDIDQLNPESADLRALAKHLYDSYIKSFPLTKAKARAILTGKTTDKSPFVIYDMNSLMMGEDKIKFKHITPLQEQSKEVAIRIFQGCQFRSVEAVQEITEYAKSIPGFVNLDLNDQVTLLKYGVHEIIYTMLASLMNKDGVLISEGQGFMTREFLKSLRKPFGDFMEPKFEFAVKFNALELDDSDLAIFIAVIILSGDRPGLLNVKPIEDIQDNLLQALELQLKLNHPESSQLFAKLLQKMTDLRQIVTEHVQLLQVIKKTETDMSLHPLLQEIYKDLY
T1 sequence (P19793 1-462 partner): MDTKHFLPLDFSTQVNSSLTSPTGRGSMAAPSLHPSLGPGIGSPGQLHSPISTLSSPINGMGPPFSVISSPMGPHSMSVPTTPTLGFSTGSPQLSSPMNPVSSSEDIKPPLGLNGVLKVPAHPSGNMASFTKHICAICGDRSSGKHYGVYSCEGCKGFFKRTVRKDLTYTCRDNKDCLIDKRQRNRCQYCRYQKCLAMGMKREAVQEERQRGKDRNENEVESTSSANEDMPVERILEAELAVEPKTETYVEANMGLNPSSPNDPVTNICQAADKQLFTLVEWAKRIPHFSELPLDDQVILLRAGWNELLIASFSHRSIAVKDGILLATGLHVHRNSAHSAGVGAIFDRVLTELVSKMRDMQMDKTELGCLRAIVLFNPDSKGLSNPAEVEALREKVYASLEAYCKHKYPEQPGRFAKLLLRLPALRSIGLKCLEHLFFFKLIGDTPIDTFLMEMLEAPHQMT
Description: PPARγ-RXRα heterodimer ligand activity, luciferase reporter in PPARγ:RXRα:4ERPP/CHO-K1 cells (Test Example 3). It counts as cell-based. The note with it: 18-48 hours, concentration for 50% of the maximum fold induction. As for the experimental part:
A PPARγ: RXRα: 4ERPP/CHO-K1 cells obtained in Reference Example 8a described later were cultured in HAM F12 medium (produced by Life Technologies, Inc., USA) containing 10% Fetal bovine serum (produced by Life Technologies, Inc., USA) and then inoculated to a 96-well white plate (produced by Corning Costar Corporation, USA) at the density of 2×10^4 cells/well, and cultured in a CO2 gas incubator at 37° C. overnight.
After removing the medium from 96 well white plate, 80 μl of HAM F12 medium containing 0.1% fatty acid-free bovine serum albumin (BSA) and 20 μl of test compound were added, which was cultured in a CO2 gas incubator at 37° C. for 18-48 hours. After removing the medium, 40 μl of PIKKAGENE 7.5 (produced by Wako Pure Chemical Industries, Ltd.) diluted twice with HBSS (HANKS' BALANCED SALT SOLUTION)(produced by BIO WHITTAKER Inc., USA), was added. After stirring, the luciferase activity was determined using 1420 ARVO Multilabel Counter (produced by PerkinElmer Inc., USA).
A fold induction was calculated based on the luciferase activity of each test compound by taking the luciferase activity in the non-treatment group as 1. The values of the test compound concentration and the fold induction were analyzed using PRISM (produced by GraphPad Software Inc. USA) to calculate the EC50 values, the effective concentration of a test compound for 50% of the maximum fold induction.
After a CHO-K1 cell cultured in a 150 cm^2 cell culture flask (750 ml)(produced by Corning Costar Corporation, USA) containing HAM F12 medium (produced by Life Technologies, Inc., USA) supplemented with 10% Fetal Bovine Serum (produced by Life Technologies, Inc., USA) was scraped by treating with 0.5 g/L trypsin-0.2 g/L EDTA (ethylenediaminetetraacetic acid) (produced by Life Technologies, Inc., USA), the cell was washed with PBS (phosphate-buffered saline) (produced by Life Technologies, Inc., USA), centrifuged (1000 rpm, 5 minutes), and then suspended in PBS. Subsequently, a DNA was introduced into the cell under the condition shown below using GENE PULSER (produced by Bio-Rad Laboratories, USA).
Namely, to a cuvette having a 0.4 cm gap, added were 8×10^6 cells and 10 μg of plasmid pVgRXR2-hPPARγ obtained in Reference Example 7a and 10 μg of reporter plasmid pGL3-4ERPP-TK neo obtained in Reference Example 5a, which was subjected to electroporation at the voltage of 0.25 kV under the capacitance of 960 μF. Subsequently, the cell was transferred into a HAM F12 medium containing 10% Fetal Bovine Serum and cultured for 24 hours and then the cell was scraped again and centrifuged, and then suspended in HAM F12 medium containing 10% Fetal Bovine Serum supplemented with 500 μg/ml of GENETICIN (produced by Life Technologies, Inc., USA) and 250 μg/ml of ZEOCIN (produced by Invitrogen, USA). The obtained suspension was diluted to the density of 10^4 cells/ml and inoculated to a 96-well plate (produced by Corning Costar Corporation, USA), which was cultured in a CO2 gas incubator at 37° C., whereby obtaining a GENETICIN- and ZEOCIN-resistant transformant.
Subsequently, after the transformant cell line thus obtained was cultured in a 24-well plate (produced by Corning Costar Corporation, USA), selected was a cell line in which the luciferase was expressed and induced, i.e., PPARγ:RXRα:4ERPP/CHO-K1 cell by addition of 10 μM of pioglitazone hydrochloride.

Series [1] concerns KKAY mice. Put plainly: Plasma anti-arteriosclerosis index-enhancing action in mice (Test Example 2). The note with it: Mus musculus, po, 96 h, 0.005% in powdery diet, four days, percent increase of (HDL cholesterol/total cholesterol)x100, non-treatment group taken as 100%. It counts as in vivo. As for the experimental part: Test compounds were mixed in a powdery diet (CE-2, Japan Clea) at the concentration of 0.005%, and freely given to KKAY mice (9 to 12 weeks old, 5 mice per group), a model of obese and non-insulin dependent diabetes (type 2 diabetes), for four days. During this period, water was given freely. Blood was sampled from orbital venous plexus and components in plasma separated from blood were determined. Total cholesterol levels were determined by using L type Wako Cholesterol (Wako Pure Chemical Industries, Ltd.). Precipitation reagent for HDL cholesterol (Wako Pure Chemical Industries, Ltd.) was added to a part of the plasma to precipitate non-HDL lipoprotein, and cholesterol (HDL cholesterol) in the resulting supernatant was determined. The plasma anti-arteriosclerosis index [(HDL cholesterol/total cholesterol)×100] was calculated by using these cholesterol levels.
In the Table, “Plasma anti-arteriosclerosis index-enhancing action (%)” represents the percent increase (%) of plasma anti-arteriosclerosis index in the treatment group, when the plasma anti-arteriosclerosis index in the non-treatment group is taken as 100%.

In series [2] the test system is KKAY mice. Put plainly: Hypoglycemic and hypolipidemic actions in mice (Test Example 1). Type of series: in vivo. Conditions: Mus musculus, po, 96 h, 0.005% in powdery diet, four days, non-treated group taken as 100%. The method in brief:
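KKAY mice (9 to 12 weeks old, 5 per group) were fed diet containing 0.005% test compound ad libitum for four days. Plasma glucose and triglycerides from orbital venous blood were measured enzymatically, reported as % decrease relative to untreated group (100%).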

In the next series the target is T2, PPARδ-RXRα heterodimer (Homo sapiens, UniProt Q03181).
T2 construct: expressed in transfected cells; host or cells: COS-1
T2 sequence (Q03181 1-441): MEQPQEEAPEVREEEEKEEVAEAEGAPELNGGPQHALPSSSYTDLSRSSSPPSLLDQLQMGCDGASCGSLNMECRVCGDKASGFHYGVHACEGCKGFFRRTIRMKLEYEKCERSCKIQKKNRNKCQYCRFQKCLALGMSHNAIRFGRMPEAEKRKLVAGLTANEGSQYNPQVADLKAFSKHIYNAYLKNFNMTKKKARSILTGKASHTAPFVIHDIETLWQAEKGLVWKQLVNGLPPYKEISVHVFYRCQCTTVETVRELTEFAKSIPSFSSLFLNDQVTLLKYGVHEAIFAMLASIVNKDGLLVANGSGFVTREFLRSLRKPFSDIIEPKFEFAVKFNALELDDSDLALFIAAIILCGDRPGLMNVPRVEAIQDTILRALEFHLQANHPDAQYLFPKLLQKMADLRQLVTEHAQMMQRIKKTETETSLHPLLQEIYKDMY
T2 sequence (P19793 1-462 partner): T1 sequence (P19793 1-462 partner)
Put plainly: PPARδ-RXRα heterodimer ligand activity, luciferase reporter in COS-1 transformant (Test Example 4). It counts as cell-based. Conditions: COS-1 transformant (hPPARδ, hRXRα, reporter), 36-48 hours, concentration for 50% of the maximum fold induction. The method in brief: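 COS-1 cells transiently co-transfected with human PPARδ, human RXRα, PPRE-luciferase reporter and pRL-tk, then exposed to compound 36-48 h at 37 °C in DMEM with 0.1% fatty acid-free BSA. Luciferase read as fold induction over untreated; EC50 at 50% of maximal fold induction.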

Setting [3] is: rate of decrease in blood glucose level, read-out: Hypoglycemic action (%).
Setting [4] is: rate of decrease in blood triglyceride level, read-out: Hypolipidemic action (%).

As for `Cc1cccc(CC(=O)O)c1OCCCc1cn(-c2ccc(C(F)(F)F)cn2)nc1C(C)C` [Example 315, [2-(3-{3-isopropyl-1-[5-(trifluoromethyl)-2-pyridinyl]-1H-pyrazol-4-yl}propoxy)-3-methylphenyl]acetic acid], the melting point was in the range of 159 to 160 °C. The compound further came in with an EC50 on PPARγ-RXRα heterodimer of 35 nM. Further, in the series with KKAY mice [1], the change in vivo at 0.005 % in diet was 11%. Also, the inhibition in vivo at 0.005 % in diet in the series on KKAY mice [2] (setting [3]) came out at 53%. The inhibition in vivo at 0.005 % in diet in the series on KKAY mice [2] (setting [4]) is 70%.

`CCCc1nn(-c2ccc(C(F)(F)F)cn2)cc1CCCOc1cccc(OC(C)(C)C(=O)O)c1` [Example 41, 2-methyl-2-[3-(3-{3-propyl-1-[5-(trifluoromethyl)-2-pyridyl]-1H-pyrazol-4-yl}propoxy)phenoxy]propionic acid] gave a melting point of 99 to 100 °C. Also, at PPARγ-RXRα heterodimer, it took 77 nM to reach a half-maximal effect (EC50). Moreover, the change in vivo at 0.005 % in diet in the series with KKAY mice [1] stood at 12%. The inhibition in vivo at 0.005 % in diet in the series on KKAY mice [2] (setting [3]) was found to be 25%. Moreover, the inhibition in vivo at 0.005 % in diet with KKAY mice [2] (setting [4]) worked out at 48%.

In turn, `Cc1nn(-c2ccc(C(F)(F)F)cn2)cc1COc1ccc(OC(C)(C)C(=O)O)cc1` [Example 34, 2-methyl-2-(4-{3-methyl-1-[5-(trifluoromethyl)-2-pyridyl]-1H-pyrazol-4-ylmethoxy}phenoxy)propionic acid] yielded a melting point of 106 to 107 °C. Also, the change in vivo at 0.005 % in diet with KKAY mice [1] was 20%. For the same compound, on PPARδ-RXRα heterodimer, the EC50 was 8.1 nM. Also, in the series on KKAY mice [2] (setting [3]), the inhibition in vivo at 0.005 % in diet is 49%. The inhibition in vivo at 0.005 % in diet with KKAY mice [2] (setting [4]) was determined as 77%.

At PPARγ-RXRα heterodimer, `CCC(CC)c1nn(-c2ccc(C(F)(F)F)cn2)cc1CCCOc1nn(CC)cc1CC(=O)O` [Example 333, [1-ethyl-3-(3-{3-(1-ethylpropyl)-1-[5-(trifluoromethyl)-2-pyridinyl]-1H-pyrazol-4-yl}propoxy)-1H-pyrazol-4-yl]acetic acid] showed an EC50 of 61 nM. The change in vivo at 0.005 % in diet in the series on KKAY mice [1] is 11%.

Compound `Cn1cc(CC(=O)O)c(OCCCc2cn(-c3ccc(C(F)(F)F)cn3)nc2C2CCCCC2)n1` [Example 303, [3-(3-{3-cyclohexyl-1-[5-(trifluoromethyl)-2-pyridinyl]-1H-pyrazol-4-yl}propoxy)-1-methyl-1H-pyrazol-4-yl]acetic acid] yielded a melting point of 157 to 158 °C. Besides, the EC50 on PPARγ-RXRα heterodimer is 52 nM. Also, the change in vivo at 0.005 % in diet in the series on KKAY mice [1] came out at 14%.

For `COc1cccc(CC(=O)O)c1OCCCc1cn(-c2ccc(C(C)=O)cn2)nc1C(C)C` [Example 332, (2-{3-[1-(5-acetyl-2-pyridinyl)-3-isopropyl-1H-pyrazol-4-yl]propoxy}-3-methoxyphenyl)acetic acid], the melting point was 148 to 149 °C. The same compound had an EC50 at PPARγ-RXRα heterodimer of 29 nM. Also, in the series with KKAY mice [1], the change in vivo at 0.005 % in diet stood at 11%.

For the compound `O=C(O)Cc1ccccc1OCCCc1cn(-c2ccc(C(F)(F)F)cn2)nc1C1CCCCC1` [Example 302, [2-(3-{3-cyclohexyl-1-[5-(trifluoromethyl)-2-pyridinyl]-1H-pyrazol-4-yl}propoxy)phenyl]acetic acid], the melting point was 127 to 128 °C. The same compound displayed an EC50 at PPARγ-RXRα heterodimer of 37 nM. Also, the change in vivo at 0.005 % in diet in the series with KKAY mice [1] amounted to 24%.

As for `CCOc1cc(OCCCc2cn(-c3ccc(C(F)(F)F)cn3)nc2OCC)ccc1CCC(=O)O` [Example 35, 3-[2-ethoxy-4-(3-{3-ethoxy-1-[5-(trifluoromethyl)-2-pyridyl]-1H-pyrazol-4-yl}propoxy)phenyl]propionic acid], the melting point lay in the range of 96 to 97 °C. In addition, in the series on KKAY mice [1], the change in vivo at 0.005 % in diet is 14%. The same compound came in with an EC50 at PPARδ-RXRα heterodimer of 1.6 nM. Moreover, the inhibition in vivo at 0.005 % in diet in the series on KKAY mice [2] (setting [3]) is 30%. The inhibition in vivo at 0.005 % in diet in the series on KKAY mice [2] (setting [4]) was found to be 32%.
